Measured values reported in patent publication US12421210B2, “Fused bicyclic heterocycles as therapeutic agents” (NEW YORK UNIVERSITY, priority 2018, dated 2025).

Molecular target: human NAMPT enzyme (His-hNAMPT) (Homo sapiens (Human), UniProt P43490)
Experiment: NAMPT enzymatic inhibition assay (fluorescence, NADH product)
Type: biochemical
Details: [HDB]; read-out: NAMPT IC50 (μM) [HDB]

Chain of human NAMPT enzyme (His-hNAMPT) (P43490 whole entry): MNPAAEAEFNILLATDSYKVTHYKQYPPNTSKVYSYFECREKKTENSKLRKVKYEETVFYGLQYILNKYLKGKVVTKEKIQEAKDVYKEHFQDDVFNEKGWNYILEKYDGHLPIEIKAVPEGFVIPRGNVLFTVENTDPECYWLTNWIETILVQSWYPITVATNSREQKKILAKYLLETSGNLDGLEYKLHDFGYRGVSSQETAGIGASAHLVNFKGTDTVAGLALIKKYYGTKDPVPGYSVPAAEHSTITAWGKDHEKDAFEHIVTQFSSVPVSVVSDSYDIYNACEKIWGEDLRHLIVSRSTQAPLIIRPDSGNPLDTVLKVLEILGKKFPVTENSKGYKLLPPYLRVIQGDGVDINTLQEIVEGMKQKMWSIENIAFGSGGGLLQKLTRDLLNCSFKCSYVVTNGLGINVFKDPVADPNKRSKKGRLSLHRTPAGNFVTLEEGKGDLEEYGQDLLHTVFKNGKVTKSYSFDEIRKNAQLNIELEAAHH

IC50 [µM]	Structure (SMILES)
< 0.01	COc1ncc(F)c(N2C[C@@H]3[C@@H](CCNC(=O)/C=C/c4cnccc4F)[C@@H]3C2)n1 [Example 332, (E)-N-(2-((1R,5S,6s)-3-(5-fluoro-2-methoxypyrimidin-4-yl)-3-azabicyclo[3.1.0]hexan-6-yl)ethyl)-3-(4-fluoropyridin-3-yl)acrylamide]
< 0.01	O=C(/C=C/c1cccnc1)NCC[C@@H]1[C@H]2CN(c3nc(N4CCNC(=O)C4)ncc3F)C[C@@H]12 [Example 333, (E)-N-(2-((1R,5S,6s)-3-(5-fluoro-2-(3-oxopiperazin-1-yl)pyrimidin-4-yl)-3-azabicyclo[3.1.0]hexan-6-yl)ethyl)-3-(pyridin-3-yl)acrylamide]
< 0.01	Cc1nc2cccc(N3C[C@@H]4[C@@H](CCNC(=O)/C=C/c5cccnc5)[C@@H]4C3)c2o1 [Example 334, (E)-N-(2-((1R,5S,6s)-3-(2-methylbenzo[d]oxazol-7-yl)-3-azabicyclo[3.1.0]hexan-6-yl)ethyl)-3-(pyridin-3-yl)acrylamide]
0.01 to 0.49	O=C(/C=C/c1cccnc1)NCC[C@@H]1[C@H]2CN(C(c3ccccc3)C3CCOCC3)C[C@@H]12 (stereo partly drawn) [Example 335, (E)-N-(2-((1R,5S,6s)-3-(phenyl(tetrahydro-2H-pyran-4-yl)methyl)-3-azabicyclo[3.1.0]hexan-6-yl)ethyl)-3-(pyridin-3-yl)acrylamide]
< 0.01	O=C(/C=C/c1cccnc1)NCC[C@@H]1[C@H]2CN(c3nc(-c4ncco4)ncc3F)C[C@@H]12 [Example 336, (E)-N-(2-((1R,5S,6s)-3-(5-fluoro-2-(oxazol-2-yl)pyrimidin-4-yl)-3-azabicyclo[3.1.0]hexan-6-yl)ethyl)-3-(pyridin-3-yl)acrylamide]
0.01 to 0.49	O=C(/C=C/c1cccnc1)NCC[C@@H]1[C@H]2CN(c3cccc4[nH]ncc34)C[C@@H]12 [Example 337, (E)-N-(2-((1R,5S,6s)-3-(1H-indazol-4-yl)-3-azabicyclo[3.1.0]hexan-6-yl)ethyl)-3-(pyridin-3-yl)acrylamide]
0.01 to 0.49	COc1cc(N2C[C@@H]3[C@@H](CCNC(=O)/C=C/c4ccc(N)nc4)[C@@H]3C2)ccn1 [Example 339, (E)-3-(6-aminopyridin-3-yl)-N-(2-((1R,5S,6s)-3-(2-methoxypyridin-4-yl)-3-azabicyclo[3.1.0]hexan-6-yl)ethyl)acrylamide]
0.01 to 0.49	CC(c1ccc(F)cc1)N1C[C@@H]2[C@@H](CCNC(=O)/C=C/c3ccc(N)nc3)[C@@H]2C1 (stereo partly drawn) [Example 340, (E)-3-(6-aminopyridin-3-yl)-N-(2-((1R,5S,6s)-3-(1-(4-fluorophenyl)ethyl)-3-azabicyclo[3.1.0]hexan-6-yl)ethyl)acrylamide]
0.01 to 0.49	Nc1ccc(/C=C/C(=O)NCC[C@@H]2[C@H]3CN(c4ccc(F)cc4)C[C@@H]23)cn1 [Example 341, (E)-3-(6-aminopyridin-3-yl)-N-(2-((1R,5S,6s)-3-(4-fluorophenyl)-3-azabicyclo[3.1.0]hexan-6-yl)ethyl)acrylamide]
0.01 to 0.49	Cc1nc2nccc(N3C[C@@H]4[C@@H](CCNC(=O)/C=C/c5cccnc5)[C@@H]4C3)c2o1 [Example 342, (E)-N-(2-((1R,5S,6s)-3-(2-methyloxazolo[4,5-b]pyridin-7-yl)-3-azabicyclo[3.1.0]hexan-6-yl)ethyl)-3-(pyridin-3-yl)acrylamide]

Structure (SMILES)	IC50 [µM]
CCOP(=O)(OCC)c1cccc(N2C[C@@H]3[C@@H](CCNC(=O)/C=C/c4cccnc4)[C@@H]3C2)c1 [Example 338, diethyl (3-((1R,5S,6s)-6-(2-((E)-3-(pyridin-3-yl)acrylamido)ethyl)-3-azabicyclo[3.1.0]hexan-3-yl)phenyl)phosphonate]	0.01 to 0.49
